Measured values: US20140017336A1, “CO-ADMINISTRATION OF ARSENIC COMPOUNDS AND ANTI-HERPES VIRUS ANTI-VIRALS” (priority 2011, published 2014)
“Also recorded” adds a separate entry of the source.

Assays:
EBV Zta mRNA [1] = format: cell-based, Epstein-Barr virus; details: 72 hours, qRT-PCR
CNE1<EBV BX1> tumors = test: CNE1<EBV BX1> nasopharyngeal carcinoma xenograft, tumor volume; format: in vivo, male nude mice; details: 21 days of once daily treatment; GCV 100 μg/g, ATO 100 ng/g; carrier control just under double
EBV Zta protein = format: in vivo, male nude mice; details: tumors harvested at 21 days of treatment
[2] = system: EBV immediate early protein Zta; test: Zta immunofluorescence in CNE1<EBV-BX1> cells; format: cell-based, Epstein-Barr virus; details: 1 nM ATO with or without 40 μM GCV, 3 days
Experimental: A549 cells were plated on 8-chambered Lab-Tek slides at 3×10^4 cells per well; chemical treatment began 24 hours after plating. At specified time points, cells were rinsed twice with PBS and fixed in 4% paraformaldehyde (freshly diluted from 16%, Electron Microscopy Science, Hatfield, Pa.) for 10 min at room temperature. The cells were then rinsed twice with PBS and permeabilized with 0.5% Triton™ X100 (Sigma) in PBS for 15 min at room temperature. Primary antibodies were applied at specified concentrations overnight in a humidified chamber at 4° C. Following 3 rinses in PBS, secondary antibodies were diluted 1:500 and applied for 1 hour at room temperature. The chambers were removed and Vectashield® with DAPI (Vector Laboratories, Burlingame, Calif. #H1200) was applied with cover slip mount. […]
To more specifically investigate the effects of disruption of PML NB on ZTA expression, siRNA directed against the PML transcript or a control siRNA were transfected into CNE1<BX1> cells. At day 4 post transfection, PML and Zta expression were analyzed using immunofluorescence. […] EBV infected and uninfected parental CNE1 cells were transfected with siRNA against the PML transcript or control siRNA cultured in the presence or absence of 40 μM GCV for 7 days and cells were counted in order to investigate whether disruption of PML NBs using siRNA induced GCV susceptibility. […]

EBV Zta = test: Western blot of Zta in MUTU1 cells; format: cell-based, Epstein-Barr virus; details: 0, 10 nM, 100 nM ATO, day 3
EBV Zta mRNA [3] = test: qRT-PCR of Zta mRNA in CNE1<EBV-BX1> cells; format: cell-based, Epstein-Barr virus
PML NB [4] = format: cell-based, human; details: 24 hours
PML NB [5] = target: T1, PML NB (Homo sapiens, UniProt P29590); format: cell-based
T1 construct: CNE1 cells were infected with the BX-1 strain of EBV and PML-NBs were imaged by fluorescent microscopy; endogenous in cells; host or cells: CNE1<EBV-BX1> (EBV-infected CNE1) and uninfected parental CNE1
T1 sequence (P29590 1-882): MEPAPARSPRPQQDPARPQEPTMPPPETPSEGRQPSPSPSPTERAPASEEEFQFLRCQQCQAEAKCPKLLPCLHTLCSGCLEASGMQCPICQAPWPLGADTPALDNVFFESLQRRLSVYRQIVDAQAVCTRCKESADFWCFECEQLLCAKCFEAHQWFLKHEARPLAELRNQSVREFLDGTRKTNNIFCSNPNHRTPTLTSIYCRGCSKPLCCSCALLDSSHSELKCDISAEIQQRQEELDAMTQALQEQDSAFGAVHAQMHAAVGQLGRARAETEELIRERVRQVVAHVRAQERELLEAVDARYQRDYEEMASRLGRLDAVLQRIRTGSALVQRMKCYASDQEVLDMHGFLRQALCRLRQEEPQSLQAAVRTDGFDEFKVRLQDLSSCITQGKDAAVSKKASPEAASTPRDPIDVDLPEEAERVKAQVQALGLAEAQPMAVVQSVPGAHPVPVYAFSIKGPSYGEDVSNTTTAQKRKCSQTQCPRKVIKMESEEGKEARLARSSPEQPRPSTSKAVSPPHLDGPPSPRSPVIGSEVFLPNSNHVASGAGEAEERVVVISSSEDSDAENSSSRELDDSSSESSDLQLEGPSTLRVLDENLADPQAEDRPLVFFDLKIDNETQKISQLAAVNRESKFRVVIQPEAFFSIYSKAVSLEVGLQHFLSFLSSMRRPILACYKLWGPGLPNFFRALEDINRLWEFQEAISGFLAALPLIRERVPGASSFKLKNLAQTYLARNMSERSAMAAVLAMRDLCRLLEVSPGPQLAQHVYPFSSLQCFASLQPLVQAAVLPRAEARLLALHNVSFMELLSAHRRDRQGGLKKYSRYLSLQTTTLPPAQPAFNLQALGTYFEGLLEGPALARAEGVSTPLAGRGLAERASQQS

## arsenic trioxide [ATO]
EBV Zta mRNA [1]
  ATO concentration inducing an increase in Zta mRNA: ≥ 12.5 nM
CNE1<EBV BX1> tumors
  tumor size increase over size at day 7 (pre-treatment): approximately 10%
EBV Zta protein
  Zta expression in tumor explant tissue: large pockets of reactivation
[2]
  number of Zta positive cells: increased the number of cells that were Zta positive
EBV Zta
  Zta expression (Western blot), EBV positive MUTU cells: markedly enhanced reactivation of the EBV lytic cycle; also recorded: show Zta expression
EBV Zta mRNA [3]; 48 hours, 'as low as'
  ATO dose inducing upregulation of ZTA mRNA: 1.25 nM
EBV Zta mRNA [3]; 4 days, 1 nM ATO and/or 40 μM GCV
  Zta mRNA expression compared to control: increased
PML NB [4]; 12.5 nM ATO
  PML NB immunofluorescence signal: complete loss; also recorded: below that of baseline untreated uninfected cells
PML NB [4]; EBV infected A549 cells, 'as low as'
  ATO concentration resulting in reduction of PML NB size, number and fluorescent intensity: 6.25 nM
PML NB [4]; varying doses of ATO
  PML NB immunofluorescence intensity, dose response: diminished by exposure to ATO in a dose dependent manner
PML NB [5]; 1.0 nM ATO
  PML NB immunofluorescence signal: below that of baseline untreated uninfected cells
PML NB [5]; EBV positive CNE1 cells
  ATO concentration sufficient to disrupt PML NBs: 1 nM
  PML NB immunofluorescence intensity, dose response: diminished by exposure to ATO in a dose dependent manner
